pKi: −log10 of the molar value. Where a name gives a salt, the structure may show the parent alone.
Legend:
[1] = target: T1, rat 5-HT7a receptor (Rattus norvegicus, UniProt P32305); experiment: Affinity for 5-HT7 receptor binding sites (competition radioligand binding, [3H]5-CT); details: membranes of HEK-293 cells with rat 5-HT7a; 1 nM [3H]5-CT; * = tested as hydrochloride salt
T1 construct: expressed in transfected cells; host or cells: HEK-293
Protocol: (§1) Stock drug solutions (10 mM) were prepared in DMSO (the final assay concentration of DMSO not exceeding 0.4%). Drug dilutions were prepared in assay buffer.
(§2) Sigmoidal inhibition curves were generated and fitted by nonlinear regression analysis (GraphPad Prism).
1. Affinity for 5-HT7 Receptor Binding Sites
The affinity of the compounds described in this invention for the 5-HT7 receptor binding site was evaluated by single competition radioligand binding assay. The assay was performed on membranes prepared from HEK-293 cells that had been subjected to stable transfection with the rat 5-HT7a receptor (GB: NM022938). Cells were scraped from the culture plates, suspended in Tris-HCl 50 mM pH 7.5 and collected through centrifugation (1000 rpm for 5 min). The cell pellets were homogenized (Polytron, 15 s, setting 5) in 50 mM Tris-HCl (pH 7.5), 5 mM EDTA. Following centrifugation (15,000 rpm for 25 min), membranes (135 μg protein/mL) were resuspended in the same buffer and incubated for 60 min at RT with 1 nM [^3H]5-CT in the presence of increasing concentration of test compounds. Nonspecific binding was defined in the presence of 10 μM 5-HT. Incubation was stopped by rapid filtration using the cell harvester (Packard). Radioactivity was counted in a TopCount-NXT (Packard). Experiments were conducted in triplicate.

[2] = target: T2, human recombinant 5-HT2A receptor (Homo sapiens, UniProt P28223); experiment: Affinity for 5-HT2A receptor binding sites (competitive radioligand binding, [3H]ketanserin); details: membranes of NIH3T3 with h5-HT2A, * = tested as hydrochloride salt
T2 construct: expressed in transfected cells; host or cells: NIH3T3
Protocol: as §1, §2
(§3) 2. Affinity for 5HT2 Receptor Binding Sites
(§4) Receptor binding was performed using the human recombinant 5-HT2A (GB: X57830), 5-HT2B (GB: Z36748) and 5-HT2C (GB: M81778) receptors. The affinity of the compounds for the 3 different human 5-HT2 receptor subtypes was evaluated by competitive radioligand binding assays using [^3H]ketanserin (h5-HT2A) or [^3H]mesulergine (h5-HT2B and h5-HT2C). The assays were performed on membranes prepared from NIH3T3 stably transfected with h5-HT2A or CHO stably transfected with h5-HT2B and h5-HT2C.

[3] = target: T3, human recombinant 5-HT2B receptor (Homo sapiens, UniProt P41595); experiment: Affinity for 5-HT2B receptor binding sites (competitive radioligand binding, [3H]mesulergine); details: membranes of CHO with h5-HT2B, * = tested as hydrochloride salt
T3 construct: expressed in transfected cells; host or cells: CHO
Protocol: as §1, §2, §3, §4

[4] = target: T4, human recombinant 5-HT2C receptor (Homo sapiens, UniProt P28335); experiment: Affinity for 5-HT2C receptor binding sites (competitive radioligand binding, [3H]mesulergine); details: membranes of CHO with h5-HT2C, * = tested as hydrochloride salt
T4 construct: expressed in transfected cells; host or cells: CHO
T4 sequence (P28335 33-458): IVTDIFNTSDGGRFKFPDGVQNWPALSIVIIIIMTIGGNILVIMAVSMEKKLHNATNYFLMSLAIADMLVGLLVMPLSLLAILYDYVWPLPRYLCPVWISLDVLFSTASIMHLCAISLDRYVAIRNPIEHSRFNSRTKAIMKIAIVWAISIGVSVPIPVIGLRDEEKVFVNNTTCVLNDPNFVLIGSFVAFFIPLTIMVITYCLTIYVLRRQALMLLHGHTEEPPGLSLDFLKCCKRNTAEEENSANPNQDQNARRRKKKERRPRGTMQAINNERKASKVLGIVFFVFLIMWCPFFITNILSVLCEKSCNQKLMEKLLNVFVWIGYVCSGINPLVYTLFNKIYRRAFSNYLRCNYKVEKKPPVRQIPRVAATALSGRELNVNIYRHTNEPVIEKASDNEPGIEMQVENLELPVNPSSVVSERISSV
Protocol: as §1, §2, §3, §4

[5] = target: T5, human recombinant 5-HT6 receptor (Homo sapiens, UniProt P50406); experiment: Affinity for 5-HT6 receptor binding sites (competitive radioligand binding, [3H]LSD); details: membranes of HEK-293 with h5-HT6, * = tested as hydrochloride salt
T5 construct: expressed in transfected cells; host or cells: HEK-293
Protocol: as §1, §2
3. Affinity for 5-HT6 Receptor Binding Sites
Receptor binding was performed using the human recombinant 5-HT6 (GB: BC0794995) receptor. The affinity of the compounds for the human 5-HT6 receptor was evaluated by competitive radioligand binding assays using [^3H]LSD. The assays were performed on membranes prepared from HEK-293 stably transfected with h5-HT6. Non-specific binding was estimated in the presence of 1 μM clozapine.

T3 sequence (P41595 whole entry): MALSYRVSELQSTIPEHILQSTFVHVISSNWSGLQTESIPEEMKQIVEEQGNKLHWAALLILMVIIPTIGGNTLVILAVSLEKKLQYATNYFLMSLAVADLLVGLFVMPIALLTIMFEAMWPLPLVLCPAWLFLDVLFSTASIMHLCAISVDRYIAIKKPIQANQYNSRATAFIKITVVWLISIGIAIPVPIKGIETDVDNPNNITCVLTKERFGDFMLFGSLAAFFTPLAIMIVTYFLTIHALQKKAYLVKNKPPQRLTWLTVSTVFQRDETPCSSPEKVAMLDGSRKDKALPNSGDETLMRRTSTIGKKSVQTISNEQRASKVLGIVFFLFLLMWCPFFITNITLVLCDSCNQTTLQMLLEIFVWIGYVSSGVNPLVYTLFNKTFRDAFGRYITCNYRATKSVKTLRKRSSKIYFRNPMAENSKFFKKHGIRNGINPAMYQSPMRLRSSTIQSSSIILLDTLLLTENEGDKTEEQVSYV
T2 sequence (P28223 whole entry): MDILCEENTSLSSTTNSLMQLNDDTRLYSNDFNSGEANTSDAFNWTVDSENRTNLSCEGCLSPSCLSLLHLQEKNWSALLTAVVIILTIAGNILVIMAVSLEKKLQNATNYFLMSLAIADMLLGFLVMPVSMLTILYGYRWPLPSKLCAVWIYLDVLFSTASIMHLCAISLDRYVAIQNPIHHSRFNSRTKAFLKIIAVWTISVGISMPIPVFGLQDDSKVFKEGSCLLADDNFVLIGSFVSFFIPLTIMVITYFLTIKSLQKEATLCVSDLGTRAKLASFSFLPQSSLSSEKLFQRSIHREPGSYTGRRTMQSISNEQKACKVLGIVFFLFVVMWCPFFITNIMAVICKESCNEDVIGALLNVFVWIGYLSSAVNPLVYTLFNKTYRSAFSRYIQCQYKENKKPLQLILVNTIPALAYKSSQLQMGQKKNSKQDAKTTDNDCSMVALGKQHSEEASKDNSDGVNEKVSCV
T1 sequence (P32305 whole entry): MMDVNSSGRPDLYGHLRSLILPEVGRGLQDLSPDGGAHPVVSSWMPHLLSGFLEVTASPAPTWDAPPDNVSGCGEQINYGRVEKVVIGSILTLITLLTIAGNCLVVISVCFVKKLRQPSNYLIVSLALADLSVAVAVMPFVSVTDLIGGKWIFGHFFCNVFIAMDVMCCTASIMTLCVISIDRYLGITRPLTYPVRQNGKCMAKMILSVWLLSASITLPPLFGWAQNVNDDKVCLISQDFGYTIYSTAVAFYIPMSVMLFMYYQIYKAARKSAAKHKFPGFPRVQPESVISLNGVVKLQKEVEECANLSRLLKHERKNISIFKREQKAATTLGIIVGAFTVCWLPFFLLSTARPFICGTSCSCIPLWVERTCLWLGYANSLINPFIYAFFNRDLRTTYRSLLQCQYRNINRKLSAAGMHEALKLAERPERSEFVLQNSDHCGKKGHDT
T5 sequence (P50406 whole entry): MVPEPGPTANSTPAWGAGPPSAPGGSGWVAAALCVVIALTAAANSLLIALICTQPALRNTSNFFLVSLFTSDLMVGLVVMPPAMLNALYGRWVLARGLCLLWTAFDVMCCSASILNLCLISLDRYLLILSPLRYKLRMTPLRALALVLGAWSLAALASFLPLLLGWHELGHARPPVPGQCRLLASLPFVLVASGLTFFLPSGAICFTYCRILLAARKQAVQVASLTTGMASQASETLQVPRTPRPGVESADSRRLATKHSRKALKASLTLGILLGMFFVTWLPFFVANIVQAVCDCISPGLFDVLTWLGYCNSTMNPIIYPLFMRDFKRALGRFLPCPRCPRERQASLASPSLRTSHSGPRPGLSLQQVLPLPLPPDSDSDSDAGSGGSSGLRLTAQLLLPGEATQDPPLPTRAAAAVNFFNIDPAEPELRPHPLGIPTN

Row | Structure (SMILES) | pKi [1] | pKi [2] | pKi [3] | pKi [4] | pKi [5]
1 | CCN(CC)c1nc2c(c(-c3ccc(OC)cc3)n1)CCN(Cc1ccccc1)C2 [Example 27, [7-Benzyl-4-(4-methoxy-phenyl)-5,6,7,8-tetrahydro-pyrido[3,4-d]pyrimidin-2-yl]-diethyl-amine] | < 5.00 | 5.77 | 6.18 | < 5.00 | –
2 | COc1ccc(-c2nc(N3CCCC3C)nc3c2CCNCC3)cc1 (stereo not shown) [Example 80, 6,7,8,9-tetrahydro-4-(4-methoxyphenyl)-2-(2-methyl-1-pyrrolidinyl)-5H-pyrimido[4,5-d]azepine] | – | 6.85 | 8.22 | 7.38 | 7.41
3 | Cc1ccc(-c2nc(N3[C@H](C)CCC[C@@H]3C)nc3c2CCNCC3)cc1 [Example 71, 2-[(2R,6S)-2,6-dimethyl-1-piperidinyl]-6,7,8,9-tetrahydro-4-(4-methylphenyl)-5H-pyrimido[4,5-d]azepine] | – | 7.44 | 9.00 | 8.05 | 7.72
4 | Cc1ccc(-c2nc(N3CCOC[C@@H]3C)nc3c2CCNCC3)cc1Cl [Example 93, 4-(3-chloro-4-methylphenyl)-6,7,8,9-tetrahydro-2-[(3S)-3-methyl-4-morpholinyl]-5H-pyrimido[4,5-d]azepine] | – | 6.82 | 7.74 | 7.55 | 8.05
5 | Cc1ccc(-c2nc(N3CCOC[C@@H]3C)nc3c2CCNCC3)cc1F [Example 97, 4-(3-fluoro-4-methylphenyl)-6,7,8,9-tetrahydro-2-[(3S)-3-methyl-4-morpholinyl]-5H-pyrimido[4,5-d]azepine] | – | 6.40 | 7.41 | 7.04 | 7.64
6 | COc1ccc(-c2nc(N3[C@H](C)CCC[C@@H]3C)nc3c2CCNCC3)cc1F [Example 89, 2-[(2R,6S)-2,6-dimethyl-1-piperidinyl]-4-(3-fluoro-4-methoxyphenyl)-6,7,8,9-tetrahydro-5H-pyrimido[4,5-d]azepine] | – | 6.74 | 8.52 | 7.48 | 7.46
7 | Cc1ccc(-c2nc(N3[C@H](C)CCC[C@@H]3C)nc3c2CCNCC3)cn1 [Example 86, 2-[(2R,6S)-2,6-dimethyl-1-piperidinyl]-6,7,8,9-tetrahydro-4-(6-methyl-3-pyridinyl)-5H-pyrimido[4,5-d]azepine] | – | 6.18 | 8.05 | 6.62 | 7.10
8 | Clc1ccc(-c2nc(N3CCOCC3)nc3c2CCNCC3)cc1 [Example 58, 4-(4-Chloro-phenyl)-2-morpholin-4-yl-6,7,8,9-tetrahydro-5H-pyrimido[4,5-d]azepine] | – | 7.77 | 7.52 | 7.70 | 6.99
9 | Cc1ccc(-c2nc(N3CCC(F)CC3)nc3c2CCNCC3)cc1Cl [Example 76, 4-(3-chloro-4-methylphenyl)-2-(4-fluoro-1-piperidinyl)-6,7,8,9-tetrahydro-5H-pyrimido[4,5-d]azepine] | – | 7.42 | 7.80 | 7.82 | 7.41
10 | Clc1ccc(-c2nc(N3CCOCC3)nc3c2CNCCC3)cc1 [Example 57, 4-(4-Chloro-phenyl)-2-morpholin-4-yl-6,7,8,9-tetrahydro-5H-1,3,6-triaza-benzocycloheptene] | – | 6.30 | < 5.00 | < 5.00 | 5.64
11 | Cc1ccc(-c2nc(N3CCC(F)CC3)nc3c2CCNCC3)cc1 [Example 69, 2-(4-fluoro-1-piperidinyl)-6,7,8,9-tetrahydro-4-(4-methylphenyl)-5H-pyrimido[4,5-d]azepine] | – | 7.46 | 8.30 | 8.30 | 7.89
12 | Cc1ccc(-c2nc(N3CCCC3C)nc3c2CCNCC3)cc1 (stereo not shown) [Example 72, 6,7,8,9-tetrahydro-4-(4-methylphenyl)-2-(2-methyl-1-pyrrolidinyl)-5H-pyrimido[4,5-d]azepine] | – | 7.55 | 8.70 | 8.40 | 7.49
13 | Cc1ccc(-c2nc(N3CCCC3C)nc3c2CCNCC3)cc1Cl (stereo not shown) [Example 77, 4-(3-chloro-4-methylphenyl)-6,7,8,9-tetrahydro-2-(2-methyl-1-pyrrolidinyl)-5H-pyrimido[4,5-d]azepine] | – | 7.11 | 8.05 | 7.48 | 7.29
14 | Cc1ccc(-c2nc(N3CCOC[C@@H]3C)nc3c2CCNCC3)cc1 [Example 94, 6,7,8,9-tetrahydro-2-[(3S)-3-methyl-4-morpholinyl]-4-(4-methylphenyl)-5H-pyrimido[4,5-d]azepine] | – | 7.60 | 7.82 | 7.82 | 8.10
15 | C[C@@H]1COCCN1c1nc2c(c(-c3cnc4ccccc4c3)n1)CCNCC2 [Example 99, 6,7,8,9-tetrahydro-2-[(3R)-3-methyl-4-morpholinyl]-4-(3-quinolinyl)-5H-pyrimido[4,5-d]azepine] | – | 5.84 | 6.55 | 6.31 | 7.52
16 | C[C@@H]1CCC[C@H](C)N1c1nc2c(c(-c3cnc4ccccc4c3)n1)CCNCC2 [Example 88, 2-[(2R,6S)-2,6-dimethyl-1-piperidinyl]-6,7,8,9-tetrahydro-4-(3-quinolinyl)-5H-pyrimido[4,5-d]azepine] | – | 6.64 | 7.19 | 6.22 | 7.92
17 | C[C@H]1COCCN1c1nc2c(c(-c3cnc4ccccc4c3)n1)CCNCC2 [Example 95, 6,7,8,9-tetrahydro-2-[(3S)-3-methyl-4-morpholinyl]-4-(3-quinolinyl)-5H-pyrimido[4,5-d]azepine] | – | 6.82 | 6.24 | 6.09 | 8.15
18 | C[C@H]1COCCN1c1nc2c(c(-c3ccc(Cl)cc3)n1)CCNCC2 [Example 96, 4-(4-chlorophenyl)-6,7,8,9-tetrahydro-2-[(3S)-3-methyl-4-morpholinyl]-5H-pyrimido[4,5-d]azepine] | – | 7.00 | 7.46 | 7.16 | 7.89
19 | Cc1ccc(-c2nc(N3[C@H](C)CCC[C@@H]3C)nc3c2CCNCC3)cc1Cl [Example 79, 4-(3-chloro-4-methylphenyl)-2-[(2R,6S)-2,6-dimethyl-1-piperidinyl]-6,7,8,9-tetrahydro-5H-pyrimido[4,5-d]azepine] | – | 7.41 | 8.15 | 7.59 | 7.74

Continued, in another order:

Row | pKi [1] | Structure (SMILES) | pKi [2] | pKi [3] | pKi [4] | pKi [5]
20 | < 5.00 | CCN(CC)c1nc2c(c(-c3ccc(F)cc3)n1)CNCCC2 [Example 15, Diethyl-[4-(4-fluoro-phenyl)-6,7,8,9-tetrahydro-5H-1,3,6-triaza-benzocyclohepten-2-yl]-amine] | – | – | – | –
21 | < 5.00 | COc1ccc(-c2nc(N3CCCCC3)nc3c2CNCCC3)cc1 [Example 21, 4-(4-Methoxy-phenyl)-2-piperidin-1-yl-6,7,8,9-tetrahydro-5H-1,3,6-triaza-benzocycloheptene hydrochloride] | – | – | – | –
22 | < 5.00 | CCN(CC)c1nc2c(c(-c3ccc(C#N)cc3)n1)CNCCC2 [Example 18, 4-(2-Diethylamino-6,7,8,9-tetrahydro-5H-1,3,6-triaza-benzocyclohepten-4-yl)-benzonitrile] | – | – | – | –

Source: patent US8829011B2 (Janssen Pharmaceutica NV, priority 2008, dated 2014)
